Results published in patent publication US6413739B1, “AMPA-binding human GLuR3 receptors” (priority 1992, dated 2002).

Assays:
human GluR3B receptor = assay: binding assays with membrane preparations of engineered mammalian cells
Description: This feature, coupled with the medically significant connection between AMPA-type receptors and neurological disorders and disease indicate that the present receptors, as well as AMPA-binding fragments and variants thereof, will serve as valuable tools in the screening and discovery of ligands useful to modulate in vivo interactions between such receptors and their natural ligand, glutamate. Thus, a key aspect of the present invention resides in the construction of cells that are engineered genetically to produce human GluR3 receptor, to serve as a ready and homogeneous source of receptor for use in in vitro ligand binding and/or channel activation assays.

human GluR3A receptor [1] = assay: AMPA-binding assay, membranes of transfected COS-1 cells
Procedure: (§1) Transfected cells in the frozen state were resuspended in ice-cold distilled water using a hand homogenizer, sonicated for 5 seconds, and then centrifuged for 20 minutes at 50,000 g. The supernatant was discarded and the membrane pellet stored frozen at −70 C.
(§2) COS cell membrane pellets were suspended in ice cold 50 mM Tris-HCl (pH 7.55, 5 C) and centrifuged again at 50,000 g for 10 minutes in order to remove endogenous glutamate that would compete for binding. Pellets were resuspended in ice cold 50 mM Tris-HCl (pH 7.55) buffer and the resultant membrane preparation was used as tissue source for binding experiments described below. Proteins were determined using the Pierce Reagent with BSA as standard.
Binding assays were then performed, using an amount of COS-derived membrane equivalent to from 25-100 ug as judged by protein determination and selected radiolabelled ligand. In particular, for AMPA-binding assays, incubation mixtures consisted of 25-100 ug tissue protein and D,L-alpha-[5-methyl-3H]amino-3-hydroxy-5-methylisoxazole-4-propionic acid (3H-AMPA, 27.6 Ci/mmole, 10 nM final) with 0.1 M KSCN and 2.5 mM CaCl2 in the 1 ml final volume. Non-specific […] binding was determined in the presence of 1 mM L-glutamate. […] Pellets were washed twice in 6 ml of the cold incubation buffer, then 5 ml of Beckman Ready-Protein Plus scintillation cocktail was added, for counting.

human GluR3 receptor = assay: ligand binding assay (NMDA), membranes of transfected COS cells; conditions: COS cell membranes
human GluR3A receptor [2] = assay: kainate-binding assay, membranes of transfected COS-1 cells; conditions: COS cell membranes; [vinylidene-3H] kainic acid 5 nM
Procedure: as §1, §2
For kainate-binding assays, incubation mixtures consisted of 25-100 ug tissue protein and [vinylidene-3H] kainic acid (58 Ci/mmole, 5 nM final) in the cold incubation buffer, 1 ml final volume. Non-specific binding was determined in the presence of 1 mM L-glutamate. Samples were incubated as for the AMPA-binding assays, and bound and free ligand were separated by rapid filtration using a Brandel cell harvester and GF/B filters pre-soaked in ice-cold 0.3% polyethyleneimine. Filters were washed twice in 6 ml of the cold incubation buffer, then placed in scintillation vials with 5 ml of Beckman Ready-Protein Plus scintillation cocktail for counting.

## Cc1onc(O)c1CC(N)C(=O)O (stereo not drawn) [AMPA, alpha-amino-3-hydroxy-5-methyl-isoxazole-4propionate]
Human GluR3B receptor
  selective binding relative to kainate and NMDA: bind selectively
Human GluR3A receptor [1]; 10 nM [3H]-AMPA, COS cell membranes, non-specific binding with 1 mM L-glutamate, FIG. 7
  specific binding: 25-30 fmole/mg protein
Human GluR3A receptor [1]; human GluR3A, membrane preparations
  selective binding relative to kainate and NMDA: bind selectively

## CN[C@H](CC(=O)O)C(=O)O [NMDA, N-methyl-D-aspartate]
Human GluR3 receptor
  binding of NMDA: little or no demonstrable binding

## C=C(C)[C@H]1CN[C@H](C(=O)O)[C@H]1CC(=O)O [kainate, kainic acid]
Human GluR3A receptor [2]
  binding of kainate: little or no demonstrable binding
